Tested on: Trachea and lungs (ovalbumin-sensitized guinea pig tissue, antigen challenge)
Experiment: modified Shultz-Dale procedure: inhibition of antigen-induced contraction of isolated trachea and lung from ovalbumin-immunized guinea pigs
Type: cell-based
Conditions: 3 × 10^-5 M, isolated guinea pig tissue (trachea/lung not distinguished), antigen challenge 10 min after drug; for inhibition at 30 µM: Cavia porcellus, 10 min
Protocol: The compounds of the invention display antiallergic properties when tested by the following procedure [modification of Shultz-Dale procedure, Agents and Actions, 8, 171 (1978)]: Guinea pigs, after one week environmental stabilization, are immunized IP with 1 mg crude ovalbumin (OA) in 1 ml saline with 50% complete Freund's Adjuvant (CFA). Twenty-one days later animals are killed by a blow to the head. Trachea and lungs are removed and placed in Tyrode's solution, pH 7.4, aerated with 5% CO2 in O2.
Trachea: Connective and vascular tissue are removed and a wooden stick is inserted in the lumen. One end of the trachea is fixed with a pin. The stick is held against a surgical blade and rotated in a helical manner. Spirals formed are cut into two lengths, each containing two or more bands of transverse strips of tracheal muscle. The tissue is attached to transducers and maintained at 5 g tension. Sensitivity of the preamplifier is 2.0 mv/cm and of the amplifier, 0.02 mv/cm, with calibration of 20 mg force displacement per mm. After 45 minutes equilibration, the tissue is challenged with antigen.
Lung: The heart and lung are removed as a unit and the lung is perfused with buffer by the spontaneously beating heart for several minutes. Distal strips of lung from the diaphragmatic lobe approximately 0.3 cm wide and 3 cm long are removed and attached to transducers. Preload is 0.3 g of tension with sensitivity at 0.02 mv/cm on the amplifier and 0.5 mv/cm on the preamp and calibration of 1 mm=5 mg force displacement.
Test Design for Evaluation of Drugs: All tissues are challenged repetitively with the same concentration of antigen. After each concentration, the tissue is washed and allowed to stabilize. The original baseline tension is reestablished before the next challenge. Control contractions in lung must develop a minimum of 10 mg and in trachea, a minimum of 40 mg tension above baseline. When the contractions are reproducible, drug is introduced. Drug effects of baseline are monitored. Ten minutes later, after readjustment to baseline tension as indicated by consecutive reading one minute apart, tissue is again challenged with antigen. The concentration is monitored for at least 15 minutes and the tissue is washed free of antigen and drug. […] Tissues are not used again. If inhibition takes place, a final antigen challenge is repeated to establish that the tissue is reactive to antigen.

## CCOc1c(C(=O)O)oc2c3cc(OC)ccc3n(-c3ccccc3)c12 [CH3 O, C6 H5, C2 H5, COOH, 3-Ethoxy-7-methoxy-4-phenyl-4H-furo[3,2-b]indole-2-carboxylic acid]
  inhibition at 30 µM: 100%

## CCOc1c(C(=O)Nc2nnn[nH]2)oc2c3cc(OC)ccc3n(-c3ccccc3)c12 [CH3 O, C6 H5, C2 H5,, 3-Ethoxy-7-methoxy-4-phenyl-N-(1H-tetrazol-5-yl)-4H-furo[3,2-b]indole-2-carboxamide]
  inhibition at 30 µM: 100%

## COc1ccc2c(c1)c1oc(C(=O)O)c(OC)c1n2-c1ccccc1 [CH3 O, C6 H5, CH3, COOH, 3,7-Dimethoxy-4-phenyl-4H-furo[3,2-b]indole-2-carboxylic acid]
  inhibition at 30 µM: 100%

## COc1ccc2c(c1)c1oc(-c3nnn[nH]3)c(OC)c1n2-c1ccccc1 [CH3 O, C6 H5, CH3,, 3,7-Dimethoxy-4-phenyl-2-(1H-tetrazol-5-yl)-4H-furo[3,2-b]indole]
  inhibition at 30 µM: 100%

## COc1ccc2c(c1)c1oc(C(=O)Nc3nnn[nH]3)c(OC)c1n2-c1ccccc1 [CH3 O, C6 H5, CH3,, 3,7-Dimethoxy-4-phenyl-N-(1H-tetrazol-5-yl)-4H-furo[3,2-b]indole-2-carboxamide]
  inhibition at 30 µM: 100%

## CCOc1c(C(=O)O)oc2c3ccccc3n(-c3ccccc3)c12 [H, C6 H5, C2 H5, COOH, 3-Ethoxy-4-phenyl-4H-furo[3,2-b]indole-2-carboxylic acid]
  inhibition at 30 µM: 100%

## CCOc1c(-c2nnn[nH]2)oc2c3ccccc3n(-c3ccccc3)c12 [H, C6 H5, C2 H5,, 3-Ethoxy-4-phenyl-2(1H-tetrazol-5-yl)-4H-furo[3,2-b]indole]
  inhibition at 30 µM: 100%

## CCOc1c(C(=O)Nc2nnn[nH]2)oc2c3ccccc3n(-c3ccccc3)c12 [H, C6 H5, C2 H5,, 3-Ethoxy-4-phenyl-N(1H-tetrazol-5-yl)-4H-furo[3,2-b]-indole-2-carboxamide]
  % Inhibition: 100%

## COc1c(C(=O)O)oc2c3ccccc3n(-c3ccccc3)c12 [H, C6 H5, CH3, COOH, 3-Methoxy-4-phenyl-4H-furo[3,2-b]indole-2-carboxylic acid]
  inhibition at 30 µM: 100%

## COc1c(C(=O)Nc2nnn[nH]2)oc2c3ccccc3n(-c3ccccc3)c12 [H, C6 H5, CH3,, 3-Methoxy-4-phenyl-N-(1H-tetrazol-5-yl)-4H-furo[3,2-b]indole-2-carboxamide]
  inhibition at 30 µM: 100%

## COc1c(-c2nnn[nH]2)oc2c3ccccc3n(C)c12 [H, CH3, CH3,, 3-Methoxy-4-methyl-2-(1H-tetrazol-5-yl)-4H-furo[3,2-b]indole]
  inhibition at 30 µM: 26%

## COc1c(C(=O)Nc2nnn[nH]2)oc2c3ccccc3n(C)c12 [H, CH3, CH3,, 3-Methoxy-4-methyl-N-(1H-tetrazol-5-yl)-4H-furo[3,2-b]indole-2-carboxamide]
  inhibition at 30 µM: 38%

From US4503236A, “Antiallergic 4Hfuro[3,2-b]indoles” (Warner-Lambert Company, priority 1983, dated 1985)
